Source: patent US9662360B2, “Treatment of herpes, pseudomonas, staph, and hepatitis” (priority 2008, dated 2017)
Values joined by “and” are separate entries in the source; they are usually repeats but may differ in a detail not shown here. Equal entries are not always repeated.

Experiments:
[1] = test system: transmission of virus from chronically infected H9 cells to ME180 cervical epithelial cells; experiment: Topical microbicide assay (p24 ELISA); format: cell-based, HIV; settings: qualitative
Protocol: MEI 180 cervical epithelial cells were plated in the interior walls of a 96-well flat bottom microtiter plate at a density of […] cells per well and incubated overnight. Chronically infected H9 cells wee treated with 200 μg/ml mitomycin C in complete medium for one hour, washed extensively and resuspended at 4×10^5 per ml. […] Antiviral compounds and chronically infected cells (2×10^4) were added to each well containing ME180 cells and incubated for 6 hours. Following co-cultivation the monolayer was washed extensively and fresh medium added. Medium was removed and fresh medium added at 24 and 48 hours post-infection to remove dead lymphocytes. On day 6 post-infection, supernatant samples were removed and analyzed for virus content by p24 ELISA.

[2] = cited from earlier work
HSV-1 = experiment: In vitro HSV-1 plaque inhibition on fibroblasts; format: cell-based
Protocol: Laboratory testing was undertaken at the University Of Chicago, Clinical Microbiology Laboratories to determine inhibitory activity in vitro of the medical treatment and composition (medicine). The laboratory testing was conducted by the Associate Director, PhD, and Associate Professor of Pathology. […] It was stated by the pathologist, that they had tested “hundreds” of other compounds and had never seen anything as good as what this compound did. The following are the tests of the medicine that were conducted and results that were obtained at The University of Chicago. For ease of interpreting some of the scientific data and test results, the following definitions apply: • “MEM” pertains to Minimal Essential Medium. This is the culture medium used in laboratories for growing the cells upon which tests were run. • “Fibroblast” is a mesenchyme human cell (a cell found in connective tissue, blood, bone, lymphatics, and cartilage). • “IC50” pertains to the Inhibitory Concentrate. […] 1. Three 24-compartment plates were inoculated with fibroblasts. […] There were four control compartments on each plate containing MEM without drug. 2. The growth media was removed from the compartments and 200 ul of HSV-1 was added to each compartment of the upper half of each plate. HSV-1 was diluted 1:5000 (2.0 ul of stock HSV-1 in 10 mL of MEM). […] Also, 200 ul of HSV-2 was added to each compartment of the lower half of each plate. HSV-2 was diluted 1:2,000 (5.0 ul of stock HSV-2 in 10 mL of MEM). The virus titer was 6×10^5 per mL. 3. The plates were incubated at 37° C. for two hours. 4. The inoculum was removed and one mL of the MEM containing Drugs #1-3 were added to the four compartments. The concentration of the drug compared to the MEM is indicated below. 1. Three plates were used to screen the three drug preparations. […] There were four control compartments on each plate containing MEM without drug. 2. The growth media was removed from the compartments and 200 ul of HSV-1 was added to each compartment of the upper half of each plate. HSV-1 was diluted 1:5000 (2.0 ul of stock HSV-1 in 10 mL of MEM). […] 3. The plates were incubated at 37° C. for four hours. 4. The inoculum was removed and one mL of the MEM containing drugs #1A-3A were added to the four compartments. 1. Four plates were used to screen the four drug preparations. […] There were four control compartments on each plate containing MEM without drug. 2. The growth media was removed from the compartments and 200 ul of HSV-1 was added to each compartment of the upper two rows of each plate. HSV-1 was diluted 1:5000 (2.0 ul of stock HSV-1 in 10 mL of MEM). […] Also, 200 ul of HSV-2 was added to each compartment of the lower half of each plate. HSV-2 was diluted 1:2,000 (5.0 ul of stock HSV-2 in 10 mL of MEM). The virus titer was 6×10^5 per mL. 3. The plates were incubated at 37° C. for four hours. 4. The inoculum was removed and one mL of the MEM containing drugs #1-4 was added to the four compartments.

HSV-2 = experiment: In vitro HSV-2 plaque inhibition on fibroblasts; format: cell-based
Protocol: Laboratory testing was undertaken at the University Of Chicago, Clinical Microbiology Laboratories to determine inhibitory activity in vitro of the medical treatment and composition (medicine). The laboratory testing was conducted by the Associate Director, PhD, and Associate Professor of Pathology. […] It was stated by the pathologist, that they had tested “hundreds” of other compounds and had never seen anything as good as what this compound did. The following are the tests of the medicine that were conducted and results that were obtained at The University of Chicago. For ease of interpreting some of the scientific data and test results, the following definitions apply: • “MEM” pertains to Minimal Essential Medium. This is the culture medium used in laboratories for growing the cells upon which tests were run. • “Fibroblast” is a mesenchyme human cell (a cell found in connective tissue, blood, bone, lymphatics, and cartilage). • “IC50” pertains to the Inhibitory Concentrate. […] Three 24-compartment plates were inoculated with fibroblasts. […] There were four control compartments on each plate containing MEM without drug. 2. The growth media was removed from the compartments and 200 ul of HSV-1 was added to each compartment of the upper half of each plate. […] Also, 200 ul of HSV-2 was added to each compartment of the lower half of each plate. […] The virus titer was 6×10^5 per mL. 3. The plates were incubated at 37° C. for two hours. 4. The inoculum was removed and one mL of the MEM containing Drugs #1-3 were added to the four compartments. The concentration of the drug compared to the MEM is indicated below. […] Four plates were used to screen the four drug preparations. […] There were four control compartments on each plate containing MEM without drug. 2. The growth media was removed from the compartments and 200 ul of HSV-1 was added to each compartment of the upper two rows of each plate. […] Also, 200 ul of HSV-2 was added to each compartment of the lower half of each plate. […] The virus titer was 6×10^5 per mL. 3. The plates were incubated at 37° C. for four hours. 4. The inoculum was removed and one mL of the MEM containing drugs #1-4 was added to the four compartments.

[3] = test system: HIV-1 clinical isolate ADA in fresh human monocyte-macrophages; experiment: Anti-HIV monocyte-macrophage assay (p24 ELISA); format: cell-based; settings: for P-24 Activity: vs. ADA
Protocol: ELISA kits were purchased from Coulter. The assay is performed according to the manufacturer's recommendations. Prior to ELISA analysis, the reverse transcriptase activity assays were routinely performed and the values were used for incorporated radioactivity in the RT activity assay to determine the dilution of samples required for the ELISA. Control curves were generated in each assay to accurately quantititate the amount of capsid protein in each sample. Data was obtained by spectrophotometric analysis at 450 nm using a Molecular Devices Vmax plate reader. P24 concentrations were calculated from the optical density values by use of the Molecular Devices software package Soft Max.
For isolation of a adherent cells, 3×10^6 non-PHA stimulated peripheral blood cells were resuspended in Hanks buffered saline with calcium and magnesium supplemented with 10% human AB serum. The cells were placed in a 24-well microtiter plate at 37° C. for 2 hours. Non-adherent cells were removed by vigorously washing six times. The adherent cells were cultured for 7 days in RPM1 1640 tissue culture medium with 15% fetal bovine serum. The cultures were carefully monitored for confluency during this incubation period. Infection of the cells was performed with the monocytotropic HIV-1 strains BaL or ADA and the matched pair of AZT-sensitive and AZT-resistant virus isolates. Each of these virus isolates was obtained from the NLAID AIDS Research and Reference Reagent Program. High titer pools of each of these viruses have been harvested from infected cultures of peripheral blood adherent cells and frozen in 1.0 ml aliquots at −80° C. Monocyte-macrophage monolayers were infected at an MOI of 0.1. […] Compounds to be evaluated in the monocyte-macrophage assay were added to the monolayers shortly before infection in order to maximize the potential for identifying active compounds.
At two days post-infection, the medium was decanted and the cultures washed twice with complete medium in order to remove excess virus. Fresh medium alone or medium containing the appropriate concentration of drugs was added and incubation continued for an additional 5 days. XTT-tetrazolium or trypan blue exclusion assays for cell viability and HIV p24 ELISA assays for production of p24 core antigen were performed on Day 7 post-infection. ELISA kits were purchased from Coulter. Control curves were generated in each assay to accurately quantitate the amount of capsid protein in each sample. Data was obtained by spectrophotometric analysis at 450 nm using a Molecular Devices Vmax plate reader. P24 concentrations were calculated from the optical density values by use of the Molecular Device software package Soft Max.

[4] = test system: clinical HIV isolate ROJO in fresh human PBMCs; experiment: PBMC/ROJO reverse transcriptase activity assay; format: cell-based; settings: qualitative; PHA blastogenesis
Protocol: A microtiter based reverse transcriptase (RT) reaction was utilized. Tritiated thymidine triphosphate (NEN) (TTP) was resuspended in distilled H2O at 5 Ci/ml. Poly rA and oligo dT were prepared as a stock solution which was kept at −20° C. The RT reaction buffer was prepared fresh on a daily basis and consists of 125 μl MEGTA, 125 μl dH2O, 125 μl Triton X-100, 50 μl 1M Tris (pH 7.4), 50 μl MDTT, and 40 μl MMgCl2. These three solutions were mixed together in a ratio of 1 parts TTP, 2.5 parts poly rA:oligo dT, 2.5 parts reaction, the reaction buffer and 4 parts distilled water. Ten microliters of this reaction mixture was placed in a round bottom microtiter plate and 15 μl of virus containing supernatant was added and mixed. The plate was incubated at 37° C. and incubated for 60 minutes. […] Incorporated radioactivity was quantitated utilizing a Wallac Microbeta scintillation counter. […]
In the standard PBL assay (MOI: 0.2), the assay was ended on day 7 following collection of cell free supernatant samples for reverse transcriptase activity assay. In the low MOI PBL assay (MOI: 0.02), supernatant samples were collected on day 6, day 11, and day 14 post-infection and analyzed for […]. […]

Dextran sulfate
activity in topical microbicide assay [1]: expected level of activity

OCc1ccccc1 [Benzyl alcohol]
solubility in water [2]: 4 g/100 mL

Benzalkonium chloride [Drug #1A]
plaques (HSV-1; HSV-1, 1:2): toxic
plaques (HSV-1; HSV-1, 1:4): toxic
plaques (HSV-1; HSV-1, 1:8): toxic
plaques (HSV-1; HSV-1, 1:16): toxic
plaques (HSV-1; HSV-1, 1:32): toxic

Benzalkonium chloride [Drug #1B]
plaques (HSV-2; HSV-2, 1:20): toxic
plaques (HSV-2; HSV-2, 1:40): toxic
plaques (HSV-2; HSV-2, 1:80): toxic
plaques (HSV-2; HSV-2, 1:160): toxic
Average plaques (HSV-2; HSV-2, 1:320): 19
plaques (HSV-2; HSV-2, 1:320): 21 and 17
plaques (HSV-1; HSV-1, 1:20): toxic
plaques (HSV-1; HSV-1, 1:40): toxic
plaques (HSV-1; HSV-1, 1:80): toxic
plaques (HSV-1; HSV-1, 1:160): toxic
plaques (HSV-1; HSV-1, 1:320): 15?* and 18?*

Cc1cn([C@H]2C[C@H](N=[N+]=[N-])[C@@H](CO)O2)c(=O)[nH]c1=O [AZT, zidovudine]
activity in monocyte-macrophages infected with ADA ([3]; qualitative): expected level of activity
P-24 Activity ([3]; 0.0004 μM): 1005.00 pg/mL and 1252.00 pg/mL and 954.10 pg/mL and 1097.00 pg/mL and 1160.00 pg/mL and 1098.00 pg/mL
P-24 Activity ([3]; 0.0014 μM): 919.00 pg/mL and 1150.00 pg/mL and 678.70 pg/mL and 821.90 pg/mL and 594.80 pg/mL and 983.10 pg/mL
P-24 Activity ([3]; 0.004 μM): 470.80 pg/mL and 660.90 pg/mL and 912.30 pg/mL and 914.90 pg/mL and 891.20 pg/mL and 499.20 pg/mL
inhibition of replication of isolate ROJO in fresh human PBMCs [4]: expected level of activity

dextran
activity in topical microbicide assay [1]: expected level of activity
